Values of other authors, collected in US20240398979A1, “Compositions and Methods for Treating Dopamine Disorders” (METAQOR LLC, priority 2020, published 2024).

B1: brain-derived neurotrophic factor (protein, UniProt P23560 19-247, looked up)
Neurotrophic factor BDNF …: APMKEANIRGQGGLAYPGVRTHGTLESVNGPKAGSRGLTSLADTFEHVIEELLDEDQKVRPNEENNKDADLYTSRVMLSSQVPLEPPLLFLLEEYKNYLDAANMSMRVRRHSDPARRGELSVCDSISEWVTAADKKTAVDMSGGTVTVLEKVPVSKGQLKQYFYETKCNPMGYTKEGCRGIDKRHWNSQCRTTQSYVRALTMDSKKRIGWRFIRIDTSCVCTLTIKRGR
notes: neurotrophin

Tests used:
[1] = tested on: methamphetamine use disorder; details: randomized controlled trials / meta-analyses

Molecule | benefit in treatment of MUD [1] | in vivo half-life [min]
NCC(CC(=O)O)c1ccc(Cl)cc1 (stereo not shown) [baclofen] | insufficient evidence of benefit for reducing MUD | –
CNCC[C@@H](Oc1ccccc1C)c1ccccc1 [atomoxetine] | insufficient evidence of benefit for reducing MUD | –
CN[C@H]1CC[C@@H](c2ccc(Cl)c(Cl)c2)c2ccccc21 [sertraline] | not effective | –
COC(=O)C(c1ccccc1)C1CCCCN1 (stereo not shown) [methylphenidate] | low-strength evidence that methylphenidate may reduce METH use | –
CC1(C)O[C@@H]2[C@@H](CO[C@@]3(COS(N)(=O)=O)OC(C)(C)O[C@@H]23)O1 [Topiramate] | insufficient evidence of benefit for reducing MUD | –
NCC1(CC(=O)O)CCCCC1 [gabapentin] | insufficient evidence of benefit for reducing MUD | –
CC(NC(C)(C)C)C(=O)c1cccc(Cl)c1 (stereo not shown) [bupropion] | not effective | –
CN1CCN2c3ncccc3Cc3ccccc3C2C1 (stereo not shown) [mirtazapine] | not effective | –
Cc1nccn1CC1CCc2c(c3ccccc3n2C)C1=O (stereo not shown) [ondansetron] | No effects | –
O=C1CC[C@@]2(O)[C@H]3Cc4ccc(O)c5c4[C@@]2(CCN3CC2CC2)[C@H]1O5 [naltrexone] | insufficient evidence of benefit for reducing MUD | –
O=C1CCc2ccc(OCCCCN3CCN(c4cccc(Cl)c4Cl)CC3)cc2N1 [aripiprazole] | insufficient evidence of benefit for reducing MUD | –
c1cnc2cc3c(cc2n1)[C@@H]1CNC[C@H]3C1 [varenicline] | insufficient evidence of benefit for reducing MUD | –
B1 | – | < 5
